These results are taken from patent US20110195403A1, “SYSTEMS AND METHODS FOR FERTILITY ANALYSIS” (priority 2010, published 2011).

Values joined by “and” are separate entries in the source; they are usually repeats but may differ in a detail not shown here. Equal entries are not always repeated. Where two headings read alike, the source gives them in different places.

One assay has as its system peroxidase. The assay is described as follows: Peroxidase assay in saliva (Amplex Red). Type of assay: biochemical. As for the experimental part: To determine the effect of various GRAS compounds as inhibitors of peroxidase activity, a standard assay using Amplex® Red (Life Technologies), which releases a fluorescent oxidation product.
The test compounds, such as GRAS materials or cocktails of same, were prepared at a concentration of 500 ppm in distilled water. For the assay, 50 μl samples of test compounds were mixed with 20-30 μl of saliva (either “pooled” or “unpooled”) prior to the addition of Amplex® Red. […] Reactions were allowed to run for 30 minutes during these assays.

A further assay has as its system Galactose Oxidase. Particulars: dilute (3.5%) saliva; FIG. 13.
Another assay addresses T1, α-amylase (Homo sapiens, UniProt P0DUB6).
T1 sequence (P0DUB6 16-511): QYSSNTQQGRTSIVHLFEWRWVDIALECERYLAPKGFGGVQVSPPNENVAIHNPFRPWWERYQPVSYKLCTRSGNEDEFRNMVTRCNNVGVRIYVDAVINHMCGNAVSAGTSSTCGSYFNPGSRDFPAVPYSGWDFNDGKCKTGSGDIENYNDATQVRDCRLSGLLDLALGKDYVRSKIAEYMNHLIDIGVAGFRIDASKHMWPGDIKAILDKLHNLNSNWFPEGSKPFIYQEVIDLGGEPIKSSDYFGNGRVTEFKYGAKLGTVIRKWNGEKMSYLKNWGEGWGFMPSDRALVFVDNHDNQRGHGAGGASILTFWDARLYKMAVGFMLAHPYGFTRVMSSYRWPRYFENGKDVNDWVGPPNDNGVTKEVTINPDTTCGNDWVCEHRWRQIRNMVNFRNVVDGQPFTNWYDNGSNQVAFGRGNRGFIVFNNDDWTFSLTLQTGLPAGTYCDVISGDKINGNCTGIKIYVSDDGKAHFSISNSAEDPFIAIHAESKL
The assay is described as follows: α-Amylase inhibition saliva screening (2-chloro-p-nitrophenol-maltotriose substrate, absorbance 405 nm). Type of assay: biochemical. Particulars: for % Inhibition / % Std: relative to 100% Saliva Control; for α-amylase assay reading (absorbance at 405 nm), single replicate / α-amylase assay reading, Ave: test compound prepared at 5,000 ppm, saliva, 37° C.; for inhibition of α-Amylase: 100% saliva samples, FIG. 11; for α-Amylase Inhibitor Activity: dilute (3.5%) saliva, FIG. 10. An excerpt: Further details of these five compounds may also be seen in Table 4.

The target in a further assay is T2, Lysozyme (Homo sapiens, UniProt P61626).
T2 sequence (P61626 19-148): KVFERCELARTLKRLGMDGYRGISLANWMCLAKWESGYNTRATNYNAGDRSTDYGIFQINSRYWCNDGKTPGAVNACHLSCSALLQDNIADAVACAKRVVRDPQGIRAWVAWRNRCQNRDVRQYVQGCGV
Put plainly: Lysozyme inhibition saliva screening (fluorescein-labeled Micrococcus lysodeikticus). The settings on record: for inhibition of Lysozyme: 100% saliva samples (data not shown); for RFU Reading (60 mins): saliva, test compound prepared at 5,000 ppm; for Lysozyme Inhibitor Activity: dilute (3.5%) saliva, FIG. 12. Type of assay: biochemical. From the text:
Further details of these five compounds may also be seen in Table 5.

The mark [1] stands for this setting: 500 ppm, pooled or unpooled saliva, 30 minutes, FIGS. 26-29.

“Aluminum potassium sulfate dodecahydrate [CDI-42]”: the peroxidase inhibition result with peroxidase (setting [1]) is “significant peroxidase inhibition capabilities”. Further, the “Galactose Oxidase Inhibitor Activity” value in the assay with Galactose Oxidase is “shown to have Galactose Oxidase Inhibitor Activity”. On α-amylase (0 min), the “% Inhibition” value came to 77.07%; the “% Std” value is recorded as 22.93%; the “α-amylase assay reading (absorbance at 405 nm), single replicate” value (from here on “α-amylase assay reading … single replicate”) was 0.80 and 1.13 and 0.90 and 0.84; the “α-amylase assay reading, Ave” value was found to be 0.92. On α-amylase, the “inhibition of α-Amylase” value was “shown to inhibit α-Amylase” and the “α-Amylase Inhibitor Activity” value is recorded as “shown to have α-Amylase Inhibitor Activity”. Moreover, on α-amylase (5 min), the “% Inhibition” value amounted to 53.76%; the “% Std” value was 46.24%; the “α-amylase assay reading … single replicate” value was 1.65 and 2.15 and 1.80 and 1.81; the “α-amylase assay reading, Ave” value was found to be 1.85. At α-amylase (15 min), the “% Inhibition” value came to 42.65%; the “% Std” value stood at 57.35%; the “α-amylase assay reading … single replicate” value was 2.37 and 2.38 and 2.25 and 2.17; the “α-amylase assay reading, Ave” value is reported as 2.29.
In the case of Aluminum sulfate hydrate [CDI-34], the “% Inhibition” value at α-amylase (0 min) came to 89.96%; on α-amylase (5 min), 87.39%; on α-amylase (15 min), 85.98%. The “% Std” value at α-amylase (0 min) worked out at 10.04%; at α-amylase (5 min), 12.61%; on α-amylase (15 min), 14.02%. The “α-amylase assay reading, Ave” value is 0.40 at α-amylase (0 min), 0.50 at α-amylase (5 min) and 0.56 on α-amylase (15 min). In addition, the “α-amylase assay reading … single replicate” value is 0.40 (2×) and 0.36 and 0.45 on α-amylase (0 min, sulfate hydrate); 0.49 and 0.50 (2×) and 0.52 at α-amylase (5 min, sulfate hydrate); 0.53 and 0.61 and 0.54 and 0.56 at α-amylase (15 min, sulfate hydrate). The “inhibition of α-Amylase” value at α-amylase is given as “shown to inhibit α-Amylase”. Moreover, at α-amylase, the “α-Amylase Inhibitor Activity” value is listed as “shown to have α-Amylase Inhibitor Activity”.
For `Cn1c(=O)c2c(ncn2C)n(C)c1=O` [CDI #33, Caffeine], the peroxidase inhibition result in the assay on peroxidase (setting [1]) is listed as “significant peroxidase inhibition capabilities”.
Regarding `COc1ccc(O)c(C(C)(C)C)c1` [CDI-039, 3-tert--butyl-hydroxyanisole], the peroxidase inhibition entry in the assay with peroxidase (setting [1]) is listed as “significant peroxidase inhibition capabilities”. Also, the “Galactose Oxidase Inhibitor Activity” value in the assay with Galactose Oxidase was “shown to have Galactose Oxidase Inhibitor Activity”.
For `O=C(O)c1ccccc1` [CDI #16, Benzoic acid], in the assay with peroxidase, the peroxidase inhibition result is reported as “significant peroxidase inhibition capabilities”.
On to `O=C(O)c1ccccc1` [CDI-40, Benzoic acid], for which the “Galactose Oxidase Inhibitor Activity” value in the assay on Galactose Oxidase is listed as “shown to have Galactose Oxidase Inhibitor Activity”. At Lysozyme, the “inhibition of Lysozyme” value is recorded as “shown to inhibit Lysozyme”, the “RFU Reading (60 mins)” value is 35.82 RFU and the “Lysozyme Inhibitor Activity” value is on record as “shown to have Lysozyme Inhibitor Activity”.
For `CC(=O)O` [CDI-047, Acetic acid], in the assay with Galactose Oxidase, the “Galactose Oxidase Inhibitor Activity” value is on record as “shown to have Galactose Oxidase Inhibitor Activity”. In addition, on Lysozyme, the “inhibition of Lysozyme” value is reported as “shown to inhibit Lysozyme”, the “RFU Reading (60 mins)” value is given as 33.53 RFU and the “Lysozyme Inhibitor Activity” value is given as “shown to have Lysozyme Inhibitor Activity”.

The % Inhibition is the drop in the measured response relative to a control, in per cent. A higher % Inhibition goes with strong suppression.
